Assay results published in patent US9453040B2, “Glycodendrimers of polypropyletherimine” (priority 2010, dated 2016).

System: pro-inflammatory cytokines such as IL-6, IL-8, IL-1 beta, TNF-alpha and MIP-1 beta
Test: Effect of unconjugated components on pro-inflammatory cytokines
Assay type: cell-based
Settings: even at high doses

In the case of `N[C@H]1C(O)O[C@H](CO)[C@@H](O)[C@@H]1O` (stereo partly shown) [glucosamine], the “effect on pro-inflammatory cytokines such as IL-6, IL-8, IL-1 beta, TNF-alpha and MIP-1 beta” value is reported as “no effect”.
